From patent publication US8686115B2, “Compositions and methods for quantitatively monitoring lipids” (The Board of Trustees of the University of Illinois, priority 2009, dated 2014)

Tests used:
[1] = tested on: PtdIns(4,5)P2 in the plasma membrane; assay: Effect of ionomycin on plasma membrane PtdIns(4,5)P2 in cells microinjected with DAN-eENTH; format: cell-based; details: majority of DAN-eENTH released to the cytosol
Procedure: [DAN-eENTH] was adjusted to give strong enough FB and FG signals for robust data analysis. […] Also, when [PtdIns(4,5)P2] in the plasma membrane was lowered by ionomycin treatment, a majority of DAN-eENTH was released to the cytosol.
NIH 3T3 cells were seeded into 8-well plates and grown at 37° C. in a humidified atmosphere of 95% air and 5% CO2 in Dulbecco's modified Eagle's medium (DMEM) (Invitrogen) supplemented with 10% (v/v) fatal bovine serum (Invitrogen). DAN-eENTH was delivered into the cells by microinjection using the Eppendorf InjectMan NI 2 system. All microscopy measurements and data analysis were performed as described above. For cell measurements, the minimal FB value was taken from the cytosol where PtdIns(4,5)P2 is absent and (FB)max was taken after the excess amount of exogenous PtdIns(4,5)P2 was delivered to the cell by either microinjection or as vesicle formulation. […] Thus, the cellular [PtdIns(4,5)P2] was determined from the observed (FB/FG) values using the in vitro calibration curve determined using POPC/POPS/PtdIns(4,5)P2 GUVs.

[2] = target: T1, DAN-eENTH: epsin 1 ENTH domain variant M10C/C96A/S4W, SEQ ID NO: 2, labeled with DAN at C10 (Homo sapiens, UniProt Q9Y6I3, C96A/M10C/S4W); assay: SPR: effect of IP3 on DAN-eENTH binding to PtdIns(4,5)P2-containing vesicles; details: 5 μM IP3; 50 nM DAN-eENTH; POPC/POPS/PtdIns(4,5)P2 (77:20:3) LUVs; 5 min incubation; pH 7.4
T1 construct: The Epsin1 ENTH domain (1-158 amino acids) was subcloned; GST (C, cleaved yes); made in house; host or cells: E. coli BL21 RIL codon plus
T1 sequence (Q9Y6I3 1-158 S4W/M10C/C96A): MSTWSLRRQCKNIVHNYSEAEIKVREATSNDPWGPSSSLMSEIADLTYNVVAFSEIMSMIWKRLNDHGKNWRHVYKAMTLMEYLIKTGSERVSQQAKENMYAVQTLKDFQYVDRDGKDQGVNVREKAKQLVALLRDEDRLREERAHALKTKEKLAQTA
Procedure: (§1) With respect to FIG. 1, an L1 sensor chip was coated with POPC/POPS/PtdIns(4,5)P2 (77:20:3) LUVs. The proteins were incubated with a given concentration of IP3 for 5 minutes before injecting into the SPR instrument. Kinetic SPR measurements were performed in 20 mM Tris-HCL, pH 7.4, containing 0.16 KCl. […] A lower concentration of DAN-eENTH was used than that of PLCδ PH because the former has much higher affinity that the latter.

PLCδ PH domain = assay: SPR: inhibition by IP3 of PLCδ PH domain binding to PtdIns(4,5)P2-containing vesicles; details: 5 μM IP3; 250 nM PLCδ PH domain; POPC/POPS/PtdIns(4,5)P2 (77:20:3) LUVs; 5 min incubation; pH 7.4
Procedure: as §1

[3] = SPR analysis of lipid selectivity of Lact-C2 and mutant; format: binding; details: FIG. 12(a), 12(b)
Excerpt: The Lact-C2 domain was converted into a PA-specific protein through protein engineering based on the crystal structure of Lact-C2 (J. Biol. Chem., (283)7230-7241 (2008)) and our molecular insight into PA and PS binding proteins. In the crystal structure, D80, H83, and Q85 interact with the serine head group of PS, so we mutated them to R, E, and K, respectively, to abrogate PS binding. Since PA has higher negative charge density without the head group, a mutant without PS binding may still interact with PA with high affinity. […] PA formation in NIH 3T3 cells in the presence of the phorbol ester, PMA, was successfully quantified.

C[C@H](CCC(=O)O)C[C@H](C)C[C@H](C)C(=O)/C=C(\O)[C@H](C)C[C@H](C)C/C=C/[C@@H](C)[C@@H](O)[C@@H](C)[C@@H](O)C[C@@H]1CC[C@@](C)([C@H]2CC[C@@](C)([C@@H](C)O)O2)O1 [ionomycin]
[PtdIns(4,5)P2] in the plasma membrane upon ionomycin treatment [1]: lowered

O=P(O)(O)O[C@@H]1[C@H](O)[C@H](O)[C@@H](OP(=O)(O)O)[C@H](OP(=O)(O)O)[C@H]1O [IP3, inositol-(1,4,5)-triphosphate]
effect on binding to PtdIns(4,5)P2-containing vesicles [2]: minimal effect
inhibition of binding to PtdIns(4,5)P2-containing vesicles (PLCδ PH domain): > 70%

B1: Lact-C2: C2 domain of bovine lactadherin, SEQ ID NO:3 (protein)
chain: CTEPLGLKDNTIPNKQITASSYYKTWGLSAFSWFPYYARLDNQGKFNAWTAQTNSASEWLQIDLGSQKRVTGIITQGARDFGHIQYVAAYRVAYGDDGVTWTEYKDPGASESKIFPGNMDNNSHKKNIFETPFQARFVRIQPVAWHNRITLRVELLGC
modifications: C2 domain of bovine lactadherin.
lipid selectivity by SPR [3]: PS-specific
